Data: ChEMBL document CHEMBL1155056, “4-(Anilino)pyrrole-2-carboxamides: Novel non-steroidal/non-anilide type androgen antagonists effective upon human prostate tumor LNCaP cells with mutated nuclear androgen receptor” (Bioorg Med Chem, 2008)
Active and inactive are the calls of the source. No cut-off for these calls is given here.

Experiments:
Androgen receptor [1] = biological target: T1, Androgen receptor (Homo sapiens, UniProt P10275)
T1 sequence (P10275 whole entry): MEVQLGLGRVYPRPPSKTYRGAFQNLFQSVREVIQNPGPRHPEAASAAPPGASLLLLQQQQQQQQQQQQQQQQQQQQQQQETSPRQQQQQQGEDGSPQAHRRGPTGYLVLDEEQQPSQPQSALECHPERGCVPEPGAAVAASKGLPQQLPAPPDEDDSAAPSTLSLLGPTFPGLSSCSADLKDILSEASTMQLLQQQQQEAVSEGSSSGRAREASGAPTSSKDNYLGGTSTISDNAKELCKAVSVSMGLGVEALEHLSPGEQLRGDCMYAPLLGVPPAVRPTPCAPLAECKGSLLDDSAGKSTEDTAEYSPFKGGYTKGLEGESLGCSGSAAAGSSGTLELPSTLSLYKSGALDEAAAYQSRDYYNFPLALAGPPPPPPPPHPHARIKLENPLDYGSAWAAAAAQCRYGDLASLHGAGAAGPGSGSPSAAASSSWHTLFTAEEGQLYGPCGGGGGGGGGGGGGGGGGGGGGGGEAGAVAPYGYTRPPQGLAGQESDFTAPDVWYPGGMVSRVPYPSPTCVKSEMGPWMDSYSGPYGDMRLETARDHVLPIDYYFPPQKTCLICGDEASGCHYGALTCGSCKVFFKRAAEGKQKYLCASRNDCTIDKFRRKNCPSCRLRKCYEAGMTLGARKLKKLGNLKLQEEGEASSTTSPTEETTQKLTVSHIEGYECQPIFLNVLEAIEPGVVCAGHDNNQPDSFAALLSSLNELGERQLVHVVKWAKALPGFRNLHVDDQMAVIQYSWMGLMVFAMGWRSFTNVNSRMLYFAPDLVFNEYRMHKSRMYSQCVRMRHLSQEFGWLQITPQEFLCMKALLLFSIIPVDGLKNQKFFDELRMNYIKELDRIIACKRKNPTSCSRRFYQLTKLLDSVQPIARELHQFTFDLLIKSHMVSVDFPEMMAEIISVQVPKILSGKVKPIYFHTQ

Androgen receptor [2] = biological target: Androgen receptor (Homo sapiens, UniProt P10275, T878A); assay: Displacement of [3H]testosterone from human recombinant androgen receptor T877A mutant expressed in LNCaP cells
Sequence of Androgen receptor (Homo sapiens, UniProt P10275, T878A) (P10275 whole entry T878A): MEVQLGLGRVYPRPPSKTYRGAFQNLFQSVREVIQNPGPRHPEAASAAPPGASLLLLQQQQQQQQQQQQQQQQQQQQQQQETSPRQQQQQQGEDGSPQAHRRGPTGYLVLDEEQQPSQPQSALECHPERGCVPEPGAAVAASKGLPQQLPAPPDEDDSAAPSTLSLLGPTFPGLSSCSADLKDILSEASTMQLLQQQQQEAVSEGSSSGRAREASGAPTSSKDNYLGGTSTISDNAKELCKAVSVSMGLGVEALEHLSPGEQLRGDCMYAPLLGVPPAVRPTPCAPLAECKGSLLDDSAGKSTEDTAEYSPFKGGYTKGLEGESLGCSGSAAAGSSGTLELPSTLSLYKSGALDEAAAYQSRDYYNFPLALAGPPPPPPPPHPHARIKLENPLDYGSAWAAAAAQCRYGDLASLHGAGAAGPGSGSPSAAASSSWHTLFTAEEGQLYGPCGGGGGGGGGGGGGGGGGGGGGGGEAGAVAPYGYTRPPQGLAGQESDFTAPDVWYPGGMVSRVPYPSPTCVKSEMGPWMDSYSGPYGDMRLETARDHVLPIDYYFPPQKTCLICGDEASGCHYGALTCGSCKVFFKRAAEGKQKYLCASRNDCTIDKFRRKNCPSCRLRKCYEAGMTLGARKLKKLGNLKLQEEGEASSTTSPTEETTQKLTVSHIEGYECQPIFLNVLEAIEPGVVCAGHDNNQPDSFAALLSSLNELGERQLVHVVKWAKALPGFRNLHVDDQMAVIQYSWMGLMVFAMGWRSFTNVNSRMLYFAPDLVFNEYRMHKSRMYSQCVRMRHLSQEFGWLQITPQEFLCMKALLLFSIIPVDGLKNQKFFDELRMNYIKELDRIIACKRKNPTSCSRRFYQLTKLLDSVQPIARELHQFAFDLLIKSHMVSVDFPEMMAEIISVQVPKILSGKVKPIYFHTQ

[3] = test system: Androgen receptor (Homo sapiens), P10275 [T878A]; assay: Antagonist activity at human recombinant androgen receptor T877A mutant assessed as inhibition of prostate specific antigen production in human LNCaP cells by ELISA; format: functional, cell-based
Sequence of Androgen receptor (Homo sapiens), P10275 [T878A] (P10275 whole entry T878A): as above

LNCaP = assay: Antiproliferative activity against human LNCaP cells; format: functional, cell-based
[4] = biological target: T2, Androgen receptor (Homo sapiens) (UniProt P10275); assay: Displacement of [3H]testosterone from wild type human androgen receptor at 3 uM
T2 sequence (whole entry): T1 sequence (P10275 whole entry)

[5] = biological target: T2, Androgen receptor (Homo sapiens); assay: Antagonist activity at wild type human recombinant androgen receptor assessed as inhibition of testosterone-induced growth of mouse androgen dependent SC3 cells at 1 uM by WST-1 method; format: functional, cell-based; conditions: SC-3
[6] = biological target: T2, Androgen receptor (Homo sapiens); conditions: 30 uM
Description: Displacement of [3H]testosterone from wild type human androgen receptor at 30 uM

Row | Structure (SMILES) | Ki (Androgen receptor [1]) | Ki (Androgen receptor [2]) | other results
1 | Cc1cc(C)cc(N(c2cc(C(=O)N3CCCC3)n(C)c2)C(C)C)c1 | 2700 nM |  | 
2 | COC(=O)c1ccc(N(Cc2ccccc2)c2cc(C(=O)N3CCCC3)n(C)c2)cc1 | 180 nM | 180 nM | Activity [3]: inactive
3 | Cn1cc(N(Cc2ccccc2)c2ccc([N+](=O)[O-])cc2)cc1C(=O)O | 75 nM | 3 nM | 
4 | Cc1cc(C)cc(N(Cc2ccc(CO)cc2)c2cc(C(=O)N3CCCC3)n(C)c2)c1 | 2200 nM |  | 
5 | Cn1cc(N(Cc2ccccc2)c2ccc([N+](=O)[O-])cc2)cc1C(=O)N1CCCCC1 | 110 nM | 27 nM | 
6 | Cn1cc(N(Cc2ccccc2)c2ccc(C(F)(F)F)cc2)cc1C(=O)N1CCCC1 | 270 nM | 36 nM | 
7 | Cc1cc(C)cc(Nc2cc(C(=O)N3CCCC3)n(C)c2)c1 | 3100 nM |  | 
8 | Cn1cc(N(CC2CCCCC2)c2ccc([N+](=O)[O-])cc2)cc1C(=O)N1CCCC1 | 520 nM |  | 
9 | C[C@](O)(CS(=O)(=O)c1ccc(F)cc1)C(=O)Nc1ccc(C#N)c(C(F)(F)F)c1 |  |  | Activity (LNCaP): Active
10 | Cn1cc(N(Cc2ccccc2)c2ccc(C#N)cc2)cc1C(=O)N1CCCC1 | 130 nM | 6 nM | 
11 | CC(C)N(c1ccc([N+](=O)[O-])cc1)c1cc(C(=O)N2CCCC2)n(C)c1 | 3400 nM |  | 
12 | Cn1cc(N(Cc2ccc(F)cc2)c2ccc([N+](=O)[O-])cc2)cc1C(=O)N1CCCC1 | 800 nM | 140 nM | 
13 | Cc1cc(C)cc(N(CC2CCCCC2)c2cc(C(=O)N3CCCC3)n(C)c2)c1 | 490 nM |  | 
14 | CCN(c1cc(C)cc(C)c1)c1cc(C(=O)N2CCCC2)n(C)c1 | 2700 nM |  | 
15 | O=C(c1ccc(N(Cc2ccccc2)c2ccc([N+](=O)[O-])cc2)cc1)N1CCCC1 | 340 nM |  | 
16 | CCN(c1ccc([N+](=O)[O-])cc1)c1cc(C(=O)N2CCCC2)n(C)c1 | 2000 nM |  | 
17 | Cn1cc(N(Cc2ccccc2)c2ccc([N+](=O)[O-])cc2)cc1C(N)=O | 220 nM |  | 
18 | Cn1cc(N(Cc2ccccc2)c2ccc([N+](=O)[O-])cc2)cc1C(=O)N1CCCC1 | 110 nM | 5 nM | Activity (LNCaP): Active

Row | Structure (SMILES) | Ki (Androgen receptor [1]) | Ki (Androgen receptor [2]) | other results
19 | Cn1cc(Nc2ccc([N+](=O)[O-])cc2)cc1C(=O)N1CCCC1 | 4900 nM |  | 
20 | CC(=O)c1ccc(N(Cc2ccccc2)c2cc(C(=O)N3CCCC3)n(C)c2)cc1 | 140 nM | 130 nM | Activity [3]: inactive
21 | Cn1cc(N(Cc2ccc(O)cc2)c2ccc([N+](=O)[O-])cc2)cc1C(=O)N1CCCC1 | 730 nM | 330 nM | 
22 | Cc1ccc(CN(c2ccc([N+](=O)[O-])cc2)c2cc(C(=O)N3CCCC3)n(C)c2)cc1 | 810 nM | 130 nM | 
23 | Cc1cc(C)cc(N(Cc2ccccc2)c2cc(C(=O)N3CCCC3)n(C)c2)c1 | 350 nM |  | inhibition [4]: 20%
24 | Cn1cc(N(Cc2ccccc2)c2ccccc2[N+](=O)[O-])cc1C(=O)N1CCCC1 | 1300 nM |  | inhibition [5]: 27%
25 | Cc1cc(C)cc(N(Cc2ccc(O)cc2)c2cc(C(=O)N3CCCC3)n(C)c2)c1 | 690 nM |  | 
26 | Cc1cc(C)cc(N(C)c2cc(C(=O)N3CCCC3)n(C)c2)c1 | 6100 nM |  | 
27 | Cn1cc(N(Cc2ccc(CO)cc2)c2ccc([N+](=O)[O-])cc2)cc1C(=O)N1CCCC1 | 1800 nM | 1400 nM | 
28 | O=C(c1cccc(N(Cc2ccccc2)c2ccc([N+](=O)[O-])cc2)c1)N1CCCC1 | 370 nM |  | 
29 | Cn1cc(N(Cc2ccccc2)c2ccc([N+](=O)[O-])cc2)cc1C(=O)N1CCc2ccccc21 |  | 9 nM | inhibition [4]: 25%
30 | CCOC(=O)c1cc(N(Cc2ccccc2)c2ccc([N+](=O)[O-])cc2)cn1C | 180 nM | 7 nM | 
31 | Cn1cc(N(Cc2ccccc2)c2ccc([N+](=O)[O-])c(C(F)(F)F)c2)cc1C(=O)N1CCCC1 |  | 49 nM | inhibition [6]: 52%
32 | Cn1cc(N(Cc2ccccc2)c2ccc([N+](=O)[O-])cc2)cc1CO | 170 nM |  | 
33 | CCN(CC)C(=O)c1cc(N(Cc2ccccc2)c2ccc([N+](=O)[O-])cc2)cn1C | 100 nM | 3 nM | 
34 | CN(c1ccc([N+](=O)[O-])cc1)c1cc(C(=O)N2CCCC2)n(C)c1 | 3600 nM |  | 
35 | CC(C)(O)C(=O)Nc1ccc([N+](=O)[O-])c(C(F)(F)F)c1 |  |  | Activity (LNCaP): inactive
